This note sets out measurements from article PMC4516231 (Journal of pharmaceutical sciences, 2012).

Data set [1] in a line: Aqueous solubility in distilled–deionized water. Type of data set: physicochemical. As to conditions: for Reduction in solubility: DDW, relative to CDF; for Reduction in solubility / Solubility in DDW: 37°C; for Solubility in DDW: distilled–deionized water, 24 h.
A short description of data set [2]: Tissue. Type of data set: in vitro ADME, rabbit. To be noted: relative to parent CDF.

Converted amounts (≈) assume the structure as drawn.

Regarding `CCCCCCOP1(=O)COC(Cn2ccc(N)nc2=O)CO1` (stereo not drawn) [C6-cCDF, C6-cyclic Cidofovir], in data set [1], the Reduction in solubility entry is recorded as “about 56 fold” and the “Solubility in DDW” value turned out to be 1.27 ± 0.48 mg/mL (≈ 3.68 mM).

As for `CCCCCCCCCCCCOP1(=O)CO[C@@H](Cn2ccc(N)nc2=O)CO1` (stereo partly drawn) [C12-cCDF, C12-cyclic Cidofovir], in data set [1], the Reduction in solubility was approximately 74 fold and the “Solubility in DDW” value amounted to 0.95 ± 0.37 mg/mL (≈ 2.21 mM).

As a reminder, the solubility is how much of the substance goes into solution per volume. A high value points to much dissolved substance. Take `Nc1ccn(C[C@@H](CO)OCP(=O)(O)O)c(=O)n1` [CDF, Cidofovir, reference compound]: in data set [2], the “Fold Increase in retina–choroid partition coefficient” value is reported as 1 fold. In data set [1] (distilled-deionized water), the concentration in solution (solubility at 24 h) was 72.4 ± 3.33 mg/mL (≈ 259 mM).
